# Source: patent publication US11779602B2, “Methods of use for CAR T cells” (ENDOCYTE, INC., priority 2018, dated 2023)
# Experiments:
# [1] = tested on: target cells expressing surface folate receptor (OV90, SKOV3, IGROV1, HOS-FRα, MDA-MB-231); experiment: Two day co-culture target cell kill assay (Annexin V); assay type: cell-based, human; conditions: 100 nM EC17 30 min pre-treatment, E:T 1:1, two days
# Description: On day −1, 100,000 target cells were plated in 2 ml of growth media per well of a 12-well tissue culture plate to allow target cells to adhere and recover. On day 0, wells which received EC17 bridge molecule were treated with EC17 at 100 nM for 30 min in the tissue culture incubator. Afterwards, all media was washed off and replaced with fresh growth media free of folate and EC17. During the EC17 incubation, T cells were harvested, counted and after EC17 treatment was completed, 100,000 E2 CAR T cells were directly added onto each well of target cells in a total of 3 ml of growth media at a ratio of 1:1 (E:T) and incubated for both 1 and 2 days under standard tissue culture humidified conditions of 37° C. at 5% CO2. One day co-culture conditions were used to assay E2 CAR T cell activation by target cells and two-day incubation was used to assay target cell death. […]
# To confirm that E2 CAR T cell activation also translates to successful killing of the target cells we performed a two-day co-culture assay then looked at target cell (EGFR-CD3-) events via flow cytometry and determined the percentage of target cell staining with the apoptotic surface marker, Annexin V stain. […]
# [2] = tested on: FR+ tumor cell targets (MDA-MB-231, THP1-FRβ, HOS-FRα); experiment: CAR-T cell activation markers (CD69, CD137, PD1) in co-culture with EC17-preloaded targets; assay type: cell-based, human; conditions: E/T 1:1, 24 hours
# Description: To study CAR-T cell activation in the presence of FR+ tumor cell targets (FIGS. 53A-D), co-culture experiments were initially carried out with MDA-MB-231, THP1-FRβ and HOS-FRα. […] After 24 hours of co-culture, the surface expression of T cell activation markers CD69, CD137 (4-1BB), and PD1 were analyzed by flow cytometry. For T cell exhaustion studies (FIGS. 54A-C), FR+ (KB, MDA-MB-231, HOS-FRα^fLuc, THP1-FRβ) and FR-negative (HOS-143b^fLuc, THP1-FG12) tumor cell lines were used as targets. Here, target cells were incubated on day 0 without or with 0.1 and 10 nM of EC17 for 30 min at 37° C. and the status of EC17 “pre-loading” was assessed by counterstaining cell-surface EC17 with an anti-FITC antibody (FIG. 61A). Three days later, the surface expression of PD1, LAG3, and TIM3 inhibitor receptors on co-cultured CAR-T cells were analyzed and higher frequencies of double- and triple-positive cells were considered approaching an exhausted phenotype.
# To examine antigen-dependent CAR-T cell activation, MDA-MB-231, THP1-FRβ and HOS-FRα cells were preloaded with 100 nM EC17 over 30 min. […] After 24 hours of co-culture, we measured the surface expression of T cell activation markers CD69, CD137 (4-1BB) and PD1 (FIGS. 53A-D). […] Three days later, co-cultured CAR-T cells were measured for upregulation and co-expression of T cell activation/exhaustion markers PD1, LAGS and TIM3. […]
smiles,measurement,setting,value
"NC1=NC2N=CC(CNc3ccc(C(=O)N[C@@H](CCC(=O)NCCNC(=S)Nc4ccc(-c5c6ccc(=O)cc-6oc6cc(O)ccc56)c(C(=O)O)c4)C(=O)O)cc3)=NC2C(=O)N1 (stereo partly drawn) [EC17, FA-(γ)-ethylenediamine-FITC]",requirement of EC17 binding for target cell kill,[1],required for cell kill
same,"CAR-T cell activation (CD69, CD137, PD1)",[2]; MDA-MB-231 and HOS-FRα preloaded with 100 nM EC17 30 min,strong activators
same,"CAR-T cell activation (CD69, CD137, PD1)",[2]; THP1-FRβ preloaded with 100 nM EC17 30 min,"did trigger CAR-T cell activation, but at lower levels"
